Laboratory results from patent US9834566B2, “Pyrazolopyrimidine macrocycles as inhibitors of human immunodeficiency virus replication” (priority 2014, dated 2017).

Tested on: recombinant NL-RLuc virus (NL4-3 with Renilla Luciferase gene)
Test: Inhibition of HIV replication (NL-RLuc luciferase reporter virus in MT-2 cells)
Type: cell-based
Settings: NL43, 120 h
Excerpt: Inhibition of HIV Replication:
A recombinant NL-RLuc proviral clone was constructed in which a section of the nef gene from NL4-3 was replaced with the Renilla Luciferase gene. This virus is fully infectious and can undergo multiple cycles of replication in cell culture. In addition, the luciferous reporter provides a simple and easy method for quantitating the extent of virus growth and consequently, the antiviral activity of test compounds. The plasmid pNLRLuc contains the proviral NL-Rluc DNA cloned into pUC18 at the PvuII site. The NL-RLuc virus was prepared by transfection of 293T cells with the plasmid pNLRLuc. Transfections were performed using the LipofectAMINE PLUS kit from Invitrogen (Carlsbad, Calif.) according to the manufacturer and the virus generated was titered in MT-2 cells. For susceptibility analyses, the titrated virus was used to infect MT-2 cells in the presence of compound, and after 5 days of incubation, cells were processed and quantitated for virus growth by the amount of expressed luciferase. Assay media was RPMI 1640 supplemented with 10% heat inactivated fetal bovine serum (FBS), 100 units/ml penicillin G/100 units/ml streptomycin, 10 mM HEPES buffer pH 7.55 and 2 mM L-glutamine. The results from at least 2 experiments were used to calculate the EC50 values. Luciferase was quantitated using the Dual Luciferase kit from Promega (Madison, Wis.). Susceptibility of viruses to compounds was determined by incubation in the presence of serial dilutions of the compound. The 50% effective concentration (EC50) was calculated by using the exponential form of the median effect equation where (Fa)=1/[1+(ED50/drug conc.)^m] (Johnson V A, Byington R T. Infectivity Assay. In Techniques in HIV Research. ed. Aldovini A, Walker B D. 71-76. New York: Stockton Press. 1990).

Q: With `Cc1ccc2cc1OCCN(Cc1ccccc1)CCOc1cc(F)ccc1-c1cccc(c1)-c1cc3nc(C)c([C@H](OC(C)(C)C)C(=O)O)c-2n3n1` [Example 18, (2S)-2-(tert-Butoxy)-2-{18-fluoro-4-methyl-21,29,33-trioxa-5,7,8-triazaoctacyclo [28.6.2.1^6,^9.1^10,^14.1^23,^27.0^2,^7.0^15,^20.0^34,^38]hentetraconta-1(36),2,4,6(41),8,10(40),11,13, 15(20),16,18,23,25,27(39),34,37-hexadecaen-3-yl}acetic acid] as the molecule, how does the EC50 read?
A: 1140 nM

Q: With `C=C1COc2cc(F)ccc2-c2cccc(c2)-c2cc3nc(C)c([C@H](OC(C)(C)C)C(=O)O)c(n3n2)-c2ccc(F)cc2OC1` [Example 19, (2S)-2-(tert-butoxy)-2-{13,23-difluoro-7-methyl-18-methylidene-16,20-dioxa-3,4,6-triazahexacyclo[25.3.1.1^2,5.0^4,9.0^10,15.0^21,26]dotriaconta-1(31),2,5(32),6,8,10,12,14,21(26),22,24,27,29-tridecaen-8-yl}acetic acid] as the molecule, how does the EC50 read?
A: 3590 nM

Q: For `Cc1ccc2c(c1)OCCCCCOc1cc(F)ccc1-c1cccc(c1)-c1cc3nc(C)c([C@H](OC(C)(C)C)C(=O)O)c-2n3n1` [Example 20, (2S)-2-(tert-butoxy)-2-{25-fluoro-7, 13-dimethyl-16, 22-dioxa-3,4,6-triazahexacyclo[27.3.1.1^2,5.0^4,9.0^10,15.0^23,28]tetratriaconta-1(33),2,5(34),6,8,10,12,14, 23(28),24,26,29,31-tridecaen-8-yl}acetic acid], which EC50 is on record?
A: 2780 nM

Q: With `Cc1nc2cc3nn2c(c1[C@H](OC(C)(C)C)C(=O)O)-c1ccc2c(c1)C(CCO2)OCCCCCOc1cc(F)ccc1-c1cccc-3c1` (stereo partly drawn) [Example 21, (2S)-2-(tert-Butoxy)-2-{18-fluoro-4-methyl-21,27,31-trioxa-5,7,8-triazaheptacyclo[26.6.2.1^6,9.1^10,14.0^2,7.0^15,20.0^32,36]octatriaconta-1(34),2,4,6(38),8,10(37),11,13,15(20),16,18,32,35-tridecaen-3-yl}acetic acid] as the molecule, how does the EC50 read?
A: 695 nM

Q: With `Cc1nc2cc3nn2c(c1[C@H](OC(C)(C)C)C(=O)O)-c1ccc2c(c1)C(CCO2)OCCCCCCOc1cc(F)ccc1-c1cccc-3c1` (stereo partly drawn) [Example 22, (2S)-2-(tert-butoxy)-2-{18-fluoro-4-methyl-21,28,32-trioxa-5,7,8-triazaheptacyclo[27.6.2.1^6,9.1^10,14.0^2,7.0^15,20.0^33,37]nonatriaconta-1(35),2,4,6(39),8,10(38),11,13,15(20),16,18,33,36-tridecaen-3-yl}acetic acid] as the molecule, how does the EC50 read?
A: 1440 nM

Q: For `Cc1nc2cc3nn2c(c1[C@H](OC(C)(C)C)C(=O)O)-c1ccc2c(c1)C(CCO2)OCc1cccc(c1)COc1cc(F)ccc1-c1cccc-3c1` (stereo partly drawn) [Example 23, (2S)-2-(tert-butoxy)-2-{18-fluoro-4-methyl-21, 29, 33-trioxa-5,7,8-triazaoctacyclo[28.6.2.1^6,9.1^10,14.1^23,27.0^2,7.0^15,20.0^34,38]hentetraconta-1(36),2,4,6(41),8,10(40),11,13,15(20),16,18, 23, 25, 27(39),34,37-hexadecaen-3-yl}acetic acid], which EC50 is on record?
A: 123 nM

Q: With `Cc1nc2cc3nn2c(c1[C@H](OC(C)(C)C)C(=O)O)N1CCC(C)(CC1)OCCOCCOc1cc(F)ccc1-c1cccc-3c1` [Example 24, (2S)-2-(tert-Butoxy)-2-{18-fluoro-4,28-dimethyl-21, 24, 27-trioxa-1,5,7,8-tetraazahexacyclo[26.2.2.1^6,9.1^10,14.0^2,7.0^15,20]tetratriaconta-2,4,6(34),8,10(33),11,13,15(20),16,18-decaen-3-yl}acetic acid] as the molecule, how does the EC50 read?
A: 6 nM

Q: Which EC50 does the source give for `Cc1nc2cc3nn2c(c1[C@H](OC(C)(C)C)C(=O)O)N1CCC(C)(CC1)OCCCC[C@H](C)Oc1ccc(C(=O)NCCc2ccc(F)cc2)cc1-c1cccc-3c1` [Example 25, (2S)-2-(tert-Butoxy)-2-[(22S)-17-{[2-(4-fluorophenyl)ethyl]carbamoyl}-4,22,28-trimethyl-21,27-dioxa-1,5,7,8-tetraazahexacyclo[26.2.2.1^6,9.1^10,14.0^2,7.0^15,20]tetratriaconta-2,4,6(34),8,10(33),11,13,15(20),16,18-decaen-3-yl]acetic acid] here?
A: 4 nM

Q: For `Cc1nc2cc3nn2c(c1[C@H](OC(C)(C)C)C(=O)O)N1CCC(C)(CC1)OCCCC[C@H](C)Oc1ccc(C(=O)N(C)CCc2ccc(F)cc2)cc1-c1cccc-3c1` [Example 26, (2S)-2-(tert-Butoxy)-2-[(22S)-17-{[2-(4-fluorophenyl)ethyl](methyl)carbamoyl}-4, 22, 28-trimethyl-21, 27-dioxa-1,5,7,8-tetraazahexacyclo[26.2.2.1^6,9.1^10,14.0^2,7.0^15,20]tetratriaconta-2,4,6(34),8,10(33),11,13,15(20),16,18-decaen-3-yl]acetic acid], which EC50 is on record?
A: 3 nM

Tested on: not given
Test: not given
Settings: from C=CCOC1(C)CCN(c2c([C@H](OC(C)(C)C)C(=O)OCC)c(C)nc3cc(-c4cccc(-c5cc(C(=O)OC)ccc5O[C@@H](C)CC=C)c4)nn23)CC1; rcm bond; Hoveyda-Grubbs II (with CuI); DCE; 1.52 mM; 80.0 °C; 3.0 h

Q: For `CCOC(=O)[C@@H](OC(C)(C)C)c1c(C)nc2cc3nn2c1N1CCC(C)(CC1)OCC=CC[C@H](C)Oc1ccc(C(=O)OC)cc1-c1cccc-3c1`, which ring closure, yield of all isomers is on record?
A: 83%

Same assay, conditions: from COC(=O)[C@@H](OC(C)(C)C)c1c(C)nc2cc(-c3cccc(-c4ccc(F)cc4OCc4cccc(CBr)c4)c3)nn2c1-c1ccc2c(c1)C(O)CCO2; ether bond; NaH; THF; 2.77 mM; 25.0 °C; 5.0 h; 2 steps

Q: With `Cc1nc2cc3nn2c(c1[C@H](OC(C)(C)C)C(=O)O)-c1ccc2c(c1)C(CCO2)OCc1cccc(c1)COc1cc(F)ccc1-c1cccc-3c1` (stereo partly drawn) [Example 23, (2S)-2-(tert-butoxy)-2-{18-fluoro-4-methyl-21, 29, 33-trioxa-5,7,8-triazaoctacyclo[28.6.2.1^6,9.1^10,14.1^23,27.0^2,7.0^15,20.0^34,38]hentetraconta-1(36),2,4,6(41),8,10(40),11,13,15(20),16,18, 23, 25, 27(39),34,37-hexadecaen-3-yl}acetic acid] as the molecule, how does the ring closure, yield of all isomers read?
A: 7.2%
